Reference: patent US12577234B2, “Antagonists of the muscarinic acetylcholine receptor M4” (Vanderbilt University, priority 2017, dated 2026)

Target: T1, human mAChR M4 (Homo sapiens, UniProt P08173)
T1 construct: expressed in transfected cells; host or cells: CHO-K1 (ATCC), stably co-expressing chimeric G protein Gqi5
T1 sequence (P08173 1-479): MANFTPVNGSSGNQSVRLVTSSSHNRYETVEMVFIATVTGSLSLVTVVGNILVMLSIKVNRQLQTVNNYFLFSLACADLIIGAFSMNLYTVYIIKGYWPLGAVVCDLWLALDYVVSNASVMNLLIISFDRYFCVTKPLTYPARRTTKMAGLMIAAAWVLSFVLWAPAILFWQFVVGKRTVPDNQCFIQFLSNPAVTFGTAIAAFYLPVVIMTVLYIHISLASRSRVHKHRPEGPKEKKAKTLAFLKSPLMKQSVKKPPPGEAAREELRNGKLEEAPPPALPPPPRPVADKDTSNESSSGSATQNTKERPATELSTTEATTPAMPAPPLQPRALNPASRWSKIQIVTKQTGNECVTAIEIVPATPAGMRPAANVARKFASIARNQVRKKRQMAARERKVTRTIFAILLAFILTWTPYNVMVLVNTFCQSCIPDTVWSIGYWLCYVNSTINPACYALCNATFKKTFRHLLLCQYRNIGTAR
Assay: mAChR M4 cell-based functional assay (calcium mobilization, EC80 acetylcholine), human M4
Conditions: for IC50: M4/Gqi5/CHO-K1 cells, decrease of EC80 acetylcholine response; for Emin: human M4, % ACh maximum at 30 μM
How it was run: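 CHO-K1 cells stably expressing human M4 with chimeric Gqi5; intracellular calcium rise read on FDSS as fluorescence static ratio at 1 Hz. Compounds in 10-point 1:3 dilution series; IC50 taken as concentration-dependent decrease of the EC80 acetylcholine response, four-parameter logistic fit.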

Human M4 Emin (Table 10)	IC50 (Table 10)	IC50 (Table 9)	Emin (Table 9)	SMILES
26%	54.9 nM	–	–	Cc1noc(C)c1-c1ccc(N[C@H]2C[C@@H]3CN(CC4CCOCC4)C[C@@H]3C2)nn1 [Compound 210, (3aR,5s,6aS)-N-[6-(3,5-dimethylisoxazol-4-yl)pyridazin-3-yl]-2-(tetrahydropyran-4-ylmethyl)-3,3a,4,5,6,6a-hexahydro-1H-cyclopenta[c]pyrrol-5-amine]
–	–	1530 nM	6.78%	Cc1cccnc1CN1C[C@H]2CC(COc3ccc(-c4cn(C)nc4C)nn3)C[C@H]2C1 (stereo partly drawn) [Compound 104, (3aR,6aS)-5-[[6-(1,3-dimethylpyrazol-4-yl)pyridazin-3-yl]oxymethyl]-2-[(3-methyl-2-pyridyl)methyl]-3,3a,4,5,6,6a-hexahydro-1H-cyclopenta[c]pyrrole]
–	–	583 nM	4.62%	CCC(C)CN1C[C@H]2CC(COc3ccc(-c4cc(F)ccc4Cl)nn3)C[C@H]2C1 (stereo partly drawn) [Compound 109, (3aR,6aS)-5-[[6-(2-chloro-5-fluoro-phenyl)pyridazin-3-yl]oxymethyl]-2-(2-methylbutyl)-3,3a,4,5,6,6a-hexahydro-1H-cyclopenta[c]pyrrole]
28%	38 nM	–	–	CCn1ccc(-c2ccc(N[C@H]3C[C@@H]4CN(CC5CCOCC5)C[C@@H]4C3)nn2)n1 [Compound 228, (3aR,5s,6aS)-N-[6-(1-ethylpyrazol-3-yl)pyridazin-3-yl]-2-(tetrahydropyran-4-ylmethyl)-3,3a,4,5,6,6a-hexahydro-1H-cyclopenta[c]pyrrol-5-amine]
–	–	2580 nM	6.62%	Cc1nn(C)cc1-c1ccc(OCC2C[C@@H]3CN(Cc4ccc(F)cc4)C[C@@H]3C2)nn1 (stereo partly drawn) [Compound 102, (3aR,6aS)-5-[[6-(1,3-dimethylpyrazol-4-yl)pyridazin-3-yl]oxymethyl]-2-[(4-fluorophenyl)methyl]-3,3a,4,5,6,6a-hexahydro-1H-cyclopenta[c]pyrrole]
–	–	430 nM	3.60%	CC(CN1C[C@H]2C[C@@H](Oc3ccc(-c4cc(F)ccc4Cl)nn3)C[C@H]2C1)C(C)(C)C (stereo partly drawn) [Compound 55, (3aR,5r,6aS)-5-[6-(2-chloro-5-fluoro-phenyl)pyridazin-3-yl]oxy-2-(2,3,3-trimethylbutyl)-3,3a,4,5,6,6a-hexahydro-1H-cyclopenta[c]pyrrole]
–	–	1130 nM	4.08%	Cc1nn(C)cc1-c1ccc(O[C@@H]2C[C@@H]3CN(CC(C)C(C)(C)C)C[C@@H]3C2)nn1 (stereo partly drawn) [Compound 46, (3aR,5r,6aS)-5-[6-(1,3-Dimethylpyrazol-4-yl)pyridazin-3-yl]oxy-2-(2,3,3-trimethylbutyl)-3,3a,4,5,6,6a-hexahydro-1H-cyclopenta[c]pyrrole]
4%	4.6 nM	–	–	Fc1ccc(-c2ccc(N[C@H]3C[C@@H]4CN(CC5CCOCC5)C[C@@H]4C3)nn2)cc1 [Compound 187, (3aR,5s,6aS)-N-[6-(4-fluorophenyl)pyridazin-3-yl]-2-(tetrahydropyran-4-ylmethyl)-3,3a,4,5,6,6a-hexahydro-1H-cyclopenta[c]pyrrol-5-amine]
–	–	1430 nM	7.98%	Cc1cccnc1CN1C[C@H]2CC(COc3ccc(-c4c(C)cnn4C)nn3)C[C@H]2C1 (stereo partly drawn) [Compound 90, (3aR,6aS)-5-[[6-(2,4-dimethylpyrazol-3-yl)pyridazin-3-yl]oxymethyl]-2-[(3-methyl-2-pyridyl)methyl]-3,3a,4,5,6,6a-hexahydro-1H-cyclopenta[c]pyrrole]
–	–	860 nM	4.76%	Fc1ccc(Cl)c(-c2ccc(OCC3C[C@@H]4CN(CC5CCCOC5)C[C@@H]4C3)nn2)c1 (stereo partly drawn) [Compound 113, (3aR,6aS)-5-[[6-(2-chloro-5-fluoro-phenyl)pyridazin-3-yl]oxymethyl]-2-(tetrahydropyran-3-ylmethyl)-3,3a,4,5,6,6a-hexahydro-1H-cyclopenta[c]pyrrole]
–	–	154 nM	3.63%	Fc1ccc(Cl)c(-c2ccc(O[C@@H]3C[C@@H]4CN(CC5CCCCC5)C[C@@H]4C3)nn2)c1 [Compound 56, (3aR,5r,6aS)-5-[6-(2-chloro-5-fluoro-phenyl)pyridazin-3-yl]oxy-2-(cyclohexylmethyl)-3,3a,4,5,6,6a-hexahydro-1H-cyclopenta[c]pyrrole]
3%	174 nM	–	–	Cc1noc(C)c1-c1ccc(O[C@H]2C[C@@H]3CN(CCC(C)(C)C)C[C@@H]3C2)nn1 [Compound 136, 4-[6-[[(3aR,5s,6aS)-2-(3,3-dimethylbutyl)-3,3a,4,5,6,6a-hexahydro-1H-cyclopenta[c]pyrrol-5-yl]oxy]pyridazin-3-yl]-3,5-dimethyl-isoxazole]
4%	6.93 nM	–	–	COc1ccc(-c2ccc(N[C@H]3C[C@@H]4CN(CC5CCOCC5)C[C@@H]4C3)nn2)cn1 [Compound 224, (3aR,5s,6aS)-N-[6-(6-methoxy-3-pyridyl)pyridazin-3-yl]-2-(tetrahydropyran-4-ylmethyl)-3,3a,4,5,6,6a-hexahydro-1H-cyclopenta[c]pyrrol-5-amine]
–	–	1 nM	7.16%	Cc1cnn(C)c1-c1ccc(N[C@H]2C[C@@H]3CN(CC4CCCCC4)C[C@@H]3C2)nn1 [Compound 20, (3aR,5s,6aS)-2-(cyclohexylmethyl)-N-[6-(2,4-dimethylpyrazol-3-yl)pyridazin-3-yl]-3,3a,4,5,6,6a-hexahydro-1H-cyclopenta[c]pyrrol-5-amine]
4%	167 nM	–	–	Cc1cnn(C)c1-c1ccc(OC[C@H]2C[C@@H]3CN(CCC(C)(C)C)C[C@@H]3C2)nn1 [Compound 146, (3aR,5s,6aS)-2-(3,3-dimethylbutyl)-5-[[6-(2,4-dimethylpyrazol-3-yl)pyridazin-3-yl]oxymethyl]-3,3a,4,5,6,6a-hexahydro-1H-cyclopenta[c]pyrrole]
5%	124 nM	–	–	Cc1nn(C)cc1-c1cnc(N[C@H]2C[C@@H]3CN(CCC(C)(C)C)C[C@@H]3C2)cn1 [Compound 153, (3aR,5s,6aS)-2-(3,3-dimethylbutyl)-N-[5-(1,3-dimethylpyrazol-4-yl)pyrazin-2-yl]-3,3a,4,5,6,6a-hexahydro-1H-cyclopenta[c]pyrrol-5-amine]
13%	4.41 nM	–	–	c1nn(C2CC2)cc1-c1ccc(N[C@H]2C[C@@H]3CN(CC4CCOCC4)C[C@@H]3C2)nn1 [Compound 209, (3aR,5s,6aS)-N-[6-(1-cyclopropylpyrazol-4-yl)pyridazin-3-yl]-2-(tetrahydropyran-4-ylmethyl)-3,3a,4,5,6,6a-hexahydro-1H-cyclopenta[c]pyrrol-5-amine]
–	–	27.3 nM	4.29%	Cc1cnn(C)c1-c1ccc(NCCC2C[C@@H]3CN(CC4CCCOC4)C[C@@H]3C2)nn1 (stereo partly drawn) [Compound 122, N-[2-[(3aR,6aS)-2-(tetrahydropyran-3-ylmethyl)-3,3a,4,5,6,6a-hexahydro-1H-cyclopenta[c]pyrrol-5-yl]ethyl]-6-(2,4-dimethylpyrazol-3-yl)pyridazin-3-amine]
8%	2.07 nM	–	–	FC1(F)CCN(c2ccc(N[C@H]3C[C@@H]4CN(CC5CCOCC5)C[C@@H]4C3)nn2)C1 [Compound 189, (3aR,5s,6aS)-N-[6-(3,3-difluoropyrrolidin-1-yl)pyridazin-3-yl]-2-(tetrahydropyran-4-ylmethyl)-3,3a,4,5,6,6a-hexahydro-1H-cyclopenta[c]pyrrol-5-amine]
–	–	2380 nM	5.92%	Cc1nn(C)cc1-c1ccc(OCC2C[C@@H]3CN(Cc4ccccc4)C[C@@H]3C2)nn1 (stereo partly drawn) [Compound 100, (3aR,6aS)-2-benzyl-5-[[6-(1,3-dimethylpyrazol-4-yl)pyridazin-3-yl]oxymethyl]-3,3a,4,5,6,6a-hexahydro-1H-cyclopenta[c]pyrrole]
4%	0.365 nM	–	–	Clc1ccccc1-c1ccc(N[C@H]2C[C@@H]3CN(CC4CCOCC4)C[C@@H]3C2)nn1 [Compound 205, (3aR,5s,6aS)-N-[6-(2-chlorophenyl)pyridazin-3-yl]-2-(tetrahydropyran-4-ylmethyl)-3,3a,4,5,6,6a-hexahydro-1H-cyclopenta[c]pyrrol-5-amine]
2%	11.5 nM	–	–	COc1ccc(CN2C[C@H]3C[C@H](Nc4ccc(-c5cc(F)ccc5Cl)nn4)C[C@H]3C2)cc1 [Compound 168, (3aR,5s,6aS)-N-[6-(2-chloro-5-fluoro-phenyl)pyridazin-3-yl]-2-[(4-methoxyphenyl)methyl]-3,3a,4,5,6,6a-hexahydro-1H-cyclopenta[c]pyrrol-5-amine]
–	–	6030 nM	15.6%	Cc1nn(C)cc1-c1ccc(O[C@@H]2C[C@@H]3CN(CC4CCOCC4)C[C@@H]3C2)nn1 [Compound 50, (3aR,5r,6aS)-5-[6-(1,3-dimethylpyrazol-4-yl)pyridazin-3-yl]oxy-2-(tetrahydropyran-4-ylmethyl)-3,3a,4,5,6,6a-hexahydro-1H-cyclopenta[c]pyrrole]
